Data on 1 compound can be found in patent US10702534B2, “Compositions and methods relating to the radioprotective effects of apilimod” (priority 2017, dated 2020).

This experiment has as its system acutely irradiated mice. In words: Prevention of radiation-induced mortality in mice after 8.5 Gy total body irradiation (survival analysis). It is filed as in vivo, C57B1/6 male mice. An excerpt: Eighty-six (86) C57B1/6 male mice were randomized into 6 groups. Group 1 (n=6) served as the untreated control group (no apilimod dimesylate or radiation). Animals in Groups 2-6 (n=16/group) were exposed to an 8.5 Gy dose of total body irradiation on Day 0. Radiation was generated with a 160 kilovolt potential (18-ma) source at a focal distance of 25 cm, hardened with a 0.35 mm A1 filtration system. Irradiation targeted the total body at a rate of approximately 1.0 Gy/minute. The total radiation dose and dose rate was measured in real time with a Farmer-type ionization chamber and a Fluke 35040 ATD dosimeter. No anesthesia was used during irradiation. Animals were monitored for survival twice daily and those that lost greater than 30% of their total starting body weight were euthanized. Animals in Groups 2 through 6 were dosed with apilimod dimesylate or vehicle exactly 3 hrs prior to radiation on Day 0 via oral gavage (PO) or intraperitoneal injection (IP) as indicated in Table 1 below. All animals were given ad libitum access to acidified drinking (pH 2.8-3.0) water from Day 3 through study completion.

On to `Cc1cccc(/C=N/Nc2cc(N3CCOCC3)nc(OCCc3ccccn3)n2)c1` [apilimod dimesylate], for which the “percentage of surviving animals” value (60 mg/kg i.p. single dose 3 hrs prior to 8.5 Gy TBI, study to Day 31, vehicle 6.25%) is 43.75%. In addition, the “median time of survival” value (60 mg/kg i.p. single dose 3 hrs prior to 8.5 Gy TBI, vehicle 13.5 days) was determined as 21 days. Where the note is “180 mg/kg p.o. single dose 3 hrs prior to 8.5 Gy TBI, did not reach statistical significance”, the “survival (survival analysis, in words)” value was “trend towards increased survival”. In addition, for the setting “delivered by intraperitoneal injection, 60 mg/kg, 3 hrs prior to 8.5 Gy TBI”, the “survival protection (survival analysis, in words)” value is on record as “significant survival protection”.
